Laboratory results from the NIST ThermoML archive (doi:10.1016/j.jct.2015.09.032).
± gives the expanded uncertainty stated by the source.

Legend:
[1] = Crystal; DTA
[2] = Molar enthalpy of transition or fusion; details: Crystal; DSC

- Normal melting temperature [1]: 169.2 ± 0.61 °C
- Molar enthalpy of transition or fusion [2]: 8.72 ± 0.406 kcal/mol
SMILES: CN(C)CCOC(c1ccccc1)c1ccccc1.Cl [2-diphenylmethoxy-N,N-dimethylethanamine hydrochloride]
